# Data as given in patent US10473645B2, “Methods for identifying a receptor for a ligand and uses thereof” (UNIVERSITE DE GENEVE, priority 2014, dated 2019).
# Tests used:
# Olfr160 = conditions: dissociated neurons; previously shown; read-out: EC50 as agonist of Olfr160; cited from earlier work
# Olfr1377 [1] = conditions: expressed in HEK cells; previously shown; read-out: EC50 as agonist of Olfr1377; cited from earlier work
# Olfr1377 [2] = test: OR transcript level by RT-qPCR after in vivo odorant exposure; set-up: species or system mouse; key to olfr1377 candidate OR (RNAseq) confirmed by qPCR: The transcript downregulation of 21 out of the 26 olfactory receptor candidates obtained by RNAseq was confirmed by qPCR; false RNAseq positive candidates, namely OR candidates for which in fact mRNA was not downregulated following acetophenone exposure; conditions: for Olfr1377 mRNA level relative to unexposed controls: 5% odorant, 5 hours, in vivo, RT-qPCR
# Experimental: (§1) In vivo exposure to odorant: Starting 48 h before experiments, mice were habituated to pure DMSO on a cotton ball. 200 μl were pipetted directly onto the cotton and placed in the cage, replacing any cotton that was already in the cage for nest-making purposes.
# (§2) On the day of the experiment, mice receiving odorants were transferred to a different room, where they were exposed to a cotton ball on which 200 μl of odorant diluted in pure DMSO were deposited. Exposures started in the morning between 8 and 10 am (that is two hours after lights were on) and mice were killed and dissected between 1 and 3 pm. […] If a number of different odorants were tested in the same experiment, a different overpressurized room would always be used for each odorant to avoid odor cross-contamination.
# (§3) After odorant exposure, mice were killed by cervical dislocation and immediately decapitated. The main olfactory epithelia (MOE), were harvested in their entirety and transferred to a tube containing 600 μl of lysis buffer and β-mercaptoethanol (RNAeasy kit, Qiagen, following the manufacturer protocol) and a 0.5 cm diameter steel ball, and then put on ice. Samples were then homogenized using a FastPrep®-24 instrument (MP Biomedicals) at 6 m/s for 30 s and left on ice. RNA extraction was performed on all samples in parallel using the Qiagen RNeasy Mini® kit following the manufacturer's instructions. Two DNase treatments were performed on all samples: first using the Qiagen RNase-Free DNase Set® and then using the Life Technologies Ambion DNase I® kit. RNA samples were then aliquoted and stored at −80° C.
# (§4) RNA concentrations were determined using an Amersham Ultrospec® 3100 Pro spectrophotometer, and RNA quality was evaluated with an Agilent Technologies 2100 Bioanalyzer®. […]
# (§5) qPCR Ct values were analyzed using an in-house developed Microsoft Excel® macro file. […] Ct values were converted to quantities relative to the maximum for each given gene. Selected reference genes were then analyzed for variance using the geNorm algorithm. […]
# olfr145 = target: T1, olfr145 (Mus musculus, UniProt Q60882); test: OR transcript downregulation by RNAseq after in vivo exposure; conditions: 5% odorant, 5 hours
# T1 construct: from tissue; host or cells: main olfactory epithelium of living mice
# Experimental: Animals were exposed to 5% acetophenone for 5 hours before RNA extraction (as previously described). cDNA libraries were generated with the Truseq RNA and DNA sample preparation kits after selection of polyA-containing mRNAs. Adapters for RNAseq multiplexing were added to the cDNAs. The cDNA libraries were sequenced with a HiSeq®2500 Sequencing system. 100 bp reads were mapped using Bowtie2 with a 28 bp seed. The differential gene expression analyses were performed with DESeq2. Because of the high sequence similarity between OR gene paralogs, some reads are mapped to multiple OR genes. These reads were removed from the analysis.
# (§6) Mice (n=6) were exposed to 5% acetophenone or to a “neutral” control condition for 5 hours. An olfactory cDNA library corresponding to each animal was deep sequenced and the ratios of odorant receptor mRNA concentrations relative to controls were plotted (FIG. 3). […] Based on transcriptional downregulation levels observed by RNAseq following acetophenone exposure, a list of 26 candidate responsive ORs was determined (FIG. 3), that reached 74% decrease (Olfr145) or even over 80% (Olfr169) relative to controls. […] The transcript downregulation of 21 out of the 26 olfactory receptor candidates obtained by RNAseq was confirmed by qPCR.
# olfr490 = target: T2, olfr490 (Mus musculus, UniProt Q8VFD2); test: OR transcript level by RT-qPCR after in vivo odorant exposure; set-up: key: The transcript downregulation of 21 out of the 26 olfactory receptor candidates obtained by RNAseq was confirmed by qPCR; false RNAseq positive candidates, namely OR candidates for which in fact mRNA was not downregulated following acetophenone exposure; conditions: 5% acetophenone exposure
# T2 construct: from tissue; host or cells: main olfactory epithelium of living C57BL/6 mice
# Experimental: as §1, §2, §3
# (§7) RNA concentrations were determined using an Amersham Ultrospec® 3100 Pro spectrophotometer, and RNA quality was evaluated with an Agilent Technologies 2100 Bioanalyzer®. Each reverse transcription was performed with 0.5 μg RNA using the Takara Primescript® kit, in a final volume of 10 μl. Primers for reverse transcription were equal mixtures of poly-T nucleotides and random hexamers. Negative controls (omitting the reverse transcriptase enzyme) were performed for each sample. 1/14th of the cDNA preparation was used for each triplicated qPCR reaction.
# (§8) qPCR Ct values were analyzed using an in-house developed Microsoft Excel® macro file. Triplicate values were compared and outliers (values with a difference higher than 0.5 Ct to their nearest neighbor) were discarded. The number of conditions with an outlying value was always less than 10% of the total number of conditions. Ct values were converted to quantities relative to the maximum for each given gene. Selected reference genes were then analyzed for variance using the geNorm algorithm. All values were normalized with the olfactory tissue-specific genes Omp and Adcy3. β-Actin was used as a non-tissue-specific reference gene to control for differences in dissection between samples.
# as §6
# olfr478 = target: T3, olfr478 (Mus musculus, UniProt Q8VG04); test: as above; set-up: key: The transcript downregulation of 21 out of the 26 olfactory receptor candidates obtained by RNAseq was confirmed by qPCR; false RNAseq positive candidates, namely OR candidates for which in fact mRNA was not downregulated following acetophenone exposure; conditions: 5% acetophenone exposure
# T3 construct: from tissue; host or cells: main olfactory epithelium of living mice
# Experimental: as §1, §2, §3, §7, §8, §6
# olfr19 = target: T4, olfr19 (Mus musculus, UniProt Q9JHB2); test: as above; set-up: key: The transcript downregulation of 21 out of the 26 olfactory receptor candidates obtained by RNAseq was confirmed by qPCR; false RNAseq positive candidates, namely OR candidates for which in fact mRNA was not downregulated following acetophenone exposure; conditions: 5% acetophenone exposure
# T4 construct: from tissue; host or cells: main olfactory epithelium of living mice
# Experimental: as §1, §2, §3, §7, §8, §6
# Olfr1178 = test: as above; set-up: species or system mouse; conditions: 5% odorant, 5 hours
# Experimental: as §1
# On the day of the experiment, mice receiving odorants were transferred to a different room, where they were exposed to a cotton ball on which 200 μl of odorant diluted in pure DMSO were deposited. Exposures started in the morning between 8 and 10 am (that is two hours after lights were on) and mice were killed and dissected between 1 and 3 pm. […]
# as §4, §5
# Adult C57BL/6 mice were exposed to 5% acetophenone for 5 hours, and the level of transcripts of odorant receptors' genes were measured by RT-qPCR on extracts of olfactory epithelia from these mice, as described in the materials and methods section.
# Olfr983 = conditions: expressed in HEK cells; previously shown; read-out: EC50 as agonist of Olfr983; cited from earlier work
# T3 sequence (Q8VG04 whole entry): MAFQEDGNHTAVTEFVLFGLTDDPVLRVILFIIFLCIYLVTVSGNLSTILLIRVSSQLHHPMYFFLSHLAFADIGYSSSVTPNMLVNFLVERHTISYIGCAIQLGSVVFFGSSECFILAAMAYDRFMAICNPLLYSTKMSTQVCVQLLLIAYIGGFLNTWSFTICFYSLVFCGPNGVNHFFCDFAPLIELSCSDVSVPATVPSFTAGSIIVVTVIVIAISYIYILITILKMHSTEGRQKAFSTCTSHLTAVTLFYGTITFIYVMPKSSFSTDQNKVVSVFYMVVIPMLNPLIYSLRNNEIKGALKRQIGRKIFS
# T4 sequence (Q9JHB2 whole entry): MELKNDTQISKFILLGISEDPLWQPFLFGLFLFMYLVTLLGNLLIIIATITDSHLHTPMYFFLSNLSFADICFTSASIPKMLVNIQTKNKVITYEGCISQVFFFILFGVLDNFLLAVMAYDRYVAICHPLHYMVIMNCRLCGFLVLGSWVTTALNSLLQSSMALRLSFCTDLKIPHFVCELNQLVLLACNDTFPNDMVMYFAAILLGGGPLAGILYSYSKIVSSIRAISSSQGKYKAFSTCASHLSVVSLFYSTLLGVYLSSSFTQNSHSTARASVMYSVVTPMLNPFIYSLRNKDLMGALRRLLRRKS
# T2 sequence (Q8VFD2 whole entry): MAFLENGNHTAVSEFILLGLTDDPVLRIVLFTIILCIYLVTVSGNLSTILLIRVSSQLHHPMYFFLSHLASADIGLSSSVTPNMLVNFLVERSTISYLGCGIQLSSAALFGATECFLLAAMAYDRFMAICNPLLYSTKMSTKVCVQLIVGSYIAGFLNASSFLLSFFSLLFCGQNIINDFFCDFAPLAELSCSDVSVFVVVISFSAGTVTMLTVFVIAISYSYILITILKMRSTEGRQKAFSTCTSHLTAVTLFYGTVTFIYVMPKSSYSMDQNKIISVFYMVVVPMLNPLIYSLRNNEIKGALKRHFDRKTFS
# T1 sequence (Q60882 whole entry): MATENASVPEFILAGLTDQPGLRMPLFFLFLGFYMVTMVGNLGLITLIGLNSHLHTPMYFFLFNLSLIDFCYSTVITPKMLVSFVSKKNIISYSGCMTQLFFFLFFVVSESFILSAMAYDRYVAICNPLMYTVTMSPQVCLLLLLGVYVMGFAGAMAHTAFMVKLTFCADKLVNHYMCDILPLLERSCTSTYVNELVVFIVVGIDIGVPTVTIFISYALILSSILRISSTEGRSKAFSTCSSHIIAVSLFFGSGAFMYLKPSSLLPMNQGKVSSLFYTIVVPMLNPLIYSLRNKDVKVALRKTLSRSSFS
compound,measurement,setting,value
CC(=O)c1ccccc1 [acetophenone],EC50,Olfr160,< 50 µM
same,EC50,Olfr1377 [1],< 50 µM
same,olfr1377 candidate OR (RNAseq) confirmed by qPCR,Olfr1377 [2]; 5% acetophenone exposure,y
same,Olfr1377 mRNA level relative to unexposed controls,Olfr1377 [2],decrease
same,Olfr1377 mRNA level relative to unexposed controls,Olfr1377 [2]; listed as Acetophenone,downregulates
same,Olfr145 transcript decrease relative to controls (RNAseq),olfr145,74%
same,olfr490 candidate OR (RNAseq) confirmed by qPCR,olfr490,n
same,olfr478 candidate OR (RNAseq) confirmed by qPCR,olfr478,y
same,olfr19 candidate OR (RNAseq) confirmed by qPCR,olfr19,y
same,"Olfr1178 mRNA concentration increase, fold change",Olfr1178,1.5 fold
same,EC50,Olfr983,< 50 µM
